Measured values: patent US8129427B2, “2-phenylethylamino derivatives as calcium and/or sodium channel modulators” (Newron Pharmaceuticals S.p.A., priority 2005, dated 2012)
pIC50: −log10 of the molar value. Where a name gives a salt, the structure may show the parent alone.

What was measured:
N-type calcium channels = N-type calcium channels (Homo sapiens, UniProt Q00975); assay: N-type calcium channel influx assay (fluorescence); format: cell-based; conditions: differentiated IMR32 cells, nifedipine 1 μM, 100 mM KCl depolarization; read-out: IC50
L-type calcium channels = format: cell-based, mouse; conditions: AtT20/D16v-F2 cells, ω-conotoxin 1 μM, 100 mM KCl depolarization
TTXs sodium channels = assay: TTXs-sodium channel influx assay (membrane potential fluorescence); format: cell-based, rat; conditions: ND7/23 cells, veratridine 100 μM
Procedure: ND7/23 rat dorsal root ganglion-derived cell line endogenously expresses a mixed population of TTXs sodium channels (such as Nav1.3, Nav1.2, Nav1.1, Nav1.6). These cells lack of TTXr sodium channels as shown by the absence of their respective transcripts. ND7/23 cells were grown in DMEM supplemented with 10% FBS and 1 mM sodium piruvate.
The cells were seeded at 50,000 cells/well on 96 poly-L-lysine-coated plates and further incubated for 18-24 h before use.
The Membrane Potential Kit Assay (Molecular Devices), based on a negatively charged fluorescent dye able to monitor changes in membrane potential caused by the sodium influx due to the channel opening, was used for the assay.
Cells were incubated with the dye loading for 30 minutes at 25° C. Then, 100 nM of the toxin Anemonia sulcata (used as enhancer of the channel opener response) alone or in the presence of TTX (as reference standard) or test compound were added for further 15 minutes.
The fluorescence (excitation: 530 nm, emission: 565 nm wavelength) was measured before and after (40-45 s) the automated injection of the sodium channel opener veratridine (100 μM) using a Victor plate reader (Perkin Elmer).
The inhibition curves were calculated from 5 concentrations, each in triplicate, and the IC50 determined using a linear regression analysis.

[1] = biological target: recombinant human N-type channels, h α1B (hCav2.2)+β1b+α2δ-1 subunits (Homo sapiens, UniProt Q00975); assay: Patch clamp studies of calcium currents inhibition in HEK293 cells; format: cell-based; conditions: tonic block, preconditioning −50/−55 mV (half maximal steady-state inactivated condition); read-out: IC50 (Vhalf)
Procedure: Functional inhibition of the N-type Ca currents was studied using whole cell patch clamp methods (Hamill O. P., Marty A., Neher E., Sakmann B., Sigworth F. J. Pflugers Arch. (1981) 391: 85-100) on HEK293 cells expressing recombinant human N-type channels, obtained after transient transfection of h α1B (hCav2.2)+β1b+α2δ-1 subunits.
Membrane currents were recorded and filtered at 5 kHz with an Axon Axopatch 200B amplifier and digitized with an Axon Digidata 1322A (Axon Instruments, CA, USA). Voltage clamping of membrane potentials and data acquisition were controlled online with Axon pClamp8 software. Measuring and reference electrodes were AgCl—Ag electrodes. Cells had initial seal resistances of >1 GΩ and access resistances of 4.2±0.2 MΩ. Cells were continuously superfused with extracellular solutions using a Biologic RSC-200.
For calcium currents recording the control bath solution contained (mM): Choline chloride (70), MgCl2 (1), BaCl2 (20), TEA.Cl (50), Hepes (10), Glucose (10). Internal pipette solution consisted of (mM): CsCl (140), EGTA (10), MgCl2 (2), Hepes (10), MgATP (1), GTP Tris (0.3).
(§1) Compounds were dissolved as 20 mM stock solutions in DMSO and then diluted to the final concentration in the external solutions.
A two-step protocol was used to determine the voltage dependence of the block:
N-type current was activated by a 600 ms step pulse to +10 mV (test pulse) from a 5000 ms preconditioning potential of −110 mV (resting condition) or −50/−55 mV (half maximal steady-state inactivated condition), respectively.
The amplitude of calcium current peaks evoked by the respective test pulses at a frequency of 0.06 Hz were measured before and after exposure to the test substance. Tonic block of currents was calculated as the difference between the peak calcium current measured at the end of a stabilization period in the control external bath solution and peak currents measured at the end of test substance perfusion period (when steady state is reached) divided by control peaks. […]

[2] = biological target: T1, recombinant Nav 1.3 channels (Homo sapiens, UniProt Q9NY46); assay: Patch clamp studies of sodium currents inhibition in HEK293 cells; format: cell-based; conditions: tonic block, preconditioning −50 mV (half maximal steady-state inactivated condition); read-out: IC50 (Vhalf)
T1 construct: expressed in transfected cells; host or cells: HEK293 cells
Procedure: Cells and methods: Functional inhibition of the sodium currents was studied using whole cell patch clamp methods (Hamill O. P., Marty A., Neher E., Sakmann B., Sigworth F. J., Pflugers Arch. (1981) 391 (2): 85-100) on HEK293 cells expressing recombinant Nav 1.3 channels. Membrane currents were recorded as described in the example above.
For sodium current recording control bath solution contained (mM): NaCl (80), Choline chloride (38), CaCl2 (1.3), MgCl2 (2), KCl (2), CdCl2 (0.4), NiCl2 (0.3), TEA.Cl (20), Hepes (10), Glucose (10). Internal pipette solution consisted of (mM): EGTA (10), NaCl (10), CaCl2 (1.3), MgCl2 (2), Hepes (10), CsF (130), MgATP (1).
as §1
Voltage protocols and data analyses: A two-step protocol was used to determine the voltage dependence of the block:
sodium current was activated by a 30 ms step pulse to 10 mV (test pulse) from a 2000 ms preconditioning potential of −100 mV (resting condition) or −50 mV (half maximal steady-state inactivated condition), respectively.
The amplitude of sodium current peaks evoked by the respective test pulses at a frequency of 0.06 Hz were measured before and after exposure to the test substance. Tonic block of currents was calculated as the difference between the Nacurrent peak measured at the end of a stabilization period in the control external bath solution and the current peak measured at the end of test substance perfusion period (when steady state is reached) divided by control peaks. Drug concentration-inhibition curves were obtained by plotting tonic blocks versus drug concentrations. Dose-response curves were fitted to the tonic block data, according to the logistic equation: y=A2+(A1−A2)/[1+(x/IC50)^p]. A1 and A2 are fixed values of 0 and 1 corresponding to 0 and 100% current inhibition, x is the drug concentration, IC50 is the drug concentration resulting in 50% current inhibition and p is the corresponding slope factor.

MAO-B = biological target: T2, MAO-B (Rattus norvegicus, UniProt P19643); assay: In vitro MAO-B enzyme activity radioenzymatic assay; format: biochemical; conditions: 100 μM compound, rat brain crude mitochondrial fraction, 14C-PEA substrate
T2 construct: from tissue; host or cells: rat brain crude mitochondrial fraction
T2 sequence (P19643 1-520): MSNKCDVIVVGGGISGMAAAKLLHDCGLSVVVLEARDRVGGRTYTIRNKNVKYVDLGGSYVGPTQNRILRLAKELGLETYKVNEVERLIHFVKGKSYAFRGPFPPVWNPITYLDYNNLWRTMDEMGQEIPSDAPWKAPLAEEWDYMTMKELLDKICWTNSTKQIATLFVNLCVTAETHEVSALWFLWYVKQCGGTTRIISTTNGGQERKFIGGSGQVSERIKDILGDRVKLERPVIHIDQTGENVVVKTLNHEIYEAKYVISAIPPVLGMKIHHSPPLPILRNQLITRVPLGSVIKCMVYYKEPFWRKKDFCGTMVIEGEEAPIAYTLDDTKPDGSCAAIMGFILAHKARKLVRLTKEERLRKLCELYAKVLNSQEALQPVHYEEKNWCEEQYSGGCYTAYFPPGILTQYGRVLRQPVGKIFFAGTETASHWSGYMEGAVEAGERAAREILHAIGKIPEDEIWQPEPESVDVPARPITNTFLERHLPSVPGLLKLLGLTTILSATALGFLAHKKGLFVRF
Procedure: Male Wistar rats (Harlan, Italy—175-200 g) were sacrificed under light anaesthesia and brains were rapidly removed and homogenized in 8 volumes of ice-cold 0.32 M sucrose buffer containing 0.1 M EDTA, pH 7.4. The crude homogenate was centrifuged at 2220 rpm for 10 minutes and the supernatant recovered. The pellet was homogenized and centrifuged again. The two supernatants were pooled and centrifuged at 9250 rpm for 10 minutes at +4° C. The pellet was resuspended in fresh buffer and centrifuged at 11250 rpm for 10 minutes at +4° C. The resulting pellet was stored at −80° C.
The enzyme activities were assessed with a radioenzymatic assay using the substrates ^14C-serotonin (5-HT) and ^14C-phenylethylamine (PEA) for MAO-A and MAO-B, respectively.
The mitochondrial pellet (500 μg protein) was resuspended in 0.1 M phosphate buffer (pH 7.4). 500 μl of the suspension were added to a 50 μl solution of the test compound or buffer, and incubated for 30 min at 37° C. (preincubation) then the substrate (50 μl) was added. The incubation was carried out for 30 minutes at 37° C. (^14C-5-HT, 5 μM) or for 10 minutes at 37° C. (^14C-PEA, 0.5 μM).
The reaction was stopped by adding 0.2 ml of 37% HCl or perchloric acid. After centrifugation, the deaminated metabolites were extracted with 3 ml of diethyl ether (5-HT) or toluene (PEA) and the radioactive organic phase was measured by liquid scintillation spectrometry at 90% efficiency. The amount of neutral and/or acidic metabolites formed as a result of MAO activity was obtained by measuring the radioactivity of the eluate.
The activity of MAO in the sample, corresponding to a percentage of radioactivity compared with the control activity in the absence of the inhibitor, was expressed as nmoles of substrate transformed/mg protein/min.

[3] = tested on: maximal electroshock seizures in mice; assay: Maximal electroshock test (MES) in mice; format: in vivo, mouse; conditions: i.v., 5 minutes before testing
Description: Animals and Apparatus: Male CDl mice weighing 25 g were used. The procedure described by White et al. (White H. S., Woodhead J. H., Franklin […]., and Wolf H. H. Antiepileptic Drugs (1995) 4th ed: 99-110, Raven Press, Ltd., New York) was followed. An Ugo Basile electroconvulsive generator (Model ECT UNIT 7801) was used to deliver an electrical stimulus sufficient to produce a hindlimb tonic extensor response in at least 97% of control animals. The stimulus was delivered intra-aurally through clip electrodes in mice (0.7 s of a 40 mA shock, with a pulse train of 80 Hz having a pulse duration of 0.4 ms). […] Ten mice were studied per group. Complete suppression of the hindlimb tonic extensor component of seizures was taken as evidence of anticonvulsant activity.

T1 sequence (Q9NY46 whole entry): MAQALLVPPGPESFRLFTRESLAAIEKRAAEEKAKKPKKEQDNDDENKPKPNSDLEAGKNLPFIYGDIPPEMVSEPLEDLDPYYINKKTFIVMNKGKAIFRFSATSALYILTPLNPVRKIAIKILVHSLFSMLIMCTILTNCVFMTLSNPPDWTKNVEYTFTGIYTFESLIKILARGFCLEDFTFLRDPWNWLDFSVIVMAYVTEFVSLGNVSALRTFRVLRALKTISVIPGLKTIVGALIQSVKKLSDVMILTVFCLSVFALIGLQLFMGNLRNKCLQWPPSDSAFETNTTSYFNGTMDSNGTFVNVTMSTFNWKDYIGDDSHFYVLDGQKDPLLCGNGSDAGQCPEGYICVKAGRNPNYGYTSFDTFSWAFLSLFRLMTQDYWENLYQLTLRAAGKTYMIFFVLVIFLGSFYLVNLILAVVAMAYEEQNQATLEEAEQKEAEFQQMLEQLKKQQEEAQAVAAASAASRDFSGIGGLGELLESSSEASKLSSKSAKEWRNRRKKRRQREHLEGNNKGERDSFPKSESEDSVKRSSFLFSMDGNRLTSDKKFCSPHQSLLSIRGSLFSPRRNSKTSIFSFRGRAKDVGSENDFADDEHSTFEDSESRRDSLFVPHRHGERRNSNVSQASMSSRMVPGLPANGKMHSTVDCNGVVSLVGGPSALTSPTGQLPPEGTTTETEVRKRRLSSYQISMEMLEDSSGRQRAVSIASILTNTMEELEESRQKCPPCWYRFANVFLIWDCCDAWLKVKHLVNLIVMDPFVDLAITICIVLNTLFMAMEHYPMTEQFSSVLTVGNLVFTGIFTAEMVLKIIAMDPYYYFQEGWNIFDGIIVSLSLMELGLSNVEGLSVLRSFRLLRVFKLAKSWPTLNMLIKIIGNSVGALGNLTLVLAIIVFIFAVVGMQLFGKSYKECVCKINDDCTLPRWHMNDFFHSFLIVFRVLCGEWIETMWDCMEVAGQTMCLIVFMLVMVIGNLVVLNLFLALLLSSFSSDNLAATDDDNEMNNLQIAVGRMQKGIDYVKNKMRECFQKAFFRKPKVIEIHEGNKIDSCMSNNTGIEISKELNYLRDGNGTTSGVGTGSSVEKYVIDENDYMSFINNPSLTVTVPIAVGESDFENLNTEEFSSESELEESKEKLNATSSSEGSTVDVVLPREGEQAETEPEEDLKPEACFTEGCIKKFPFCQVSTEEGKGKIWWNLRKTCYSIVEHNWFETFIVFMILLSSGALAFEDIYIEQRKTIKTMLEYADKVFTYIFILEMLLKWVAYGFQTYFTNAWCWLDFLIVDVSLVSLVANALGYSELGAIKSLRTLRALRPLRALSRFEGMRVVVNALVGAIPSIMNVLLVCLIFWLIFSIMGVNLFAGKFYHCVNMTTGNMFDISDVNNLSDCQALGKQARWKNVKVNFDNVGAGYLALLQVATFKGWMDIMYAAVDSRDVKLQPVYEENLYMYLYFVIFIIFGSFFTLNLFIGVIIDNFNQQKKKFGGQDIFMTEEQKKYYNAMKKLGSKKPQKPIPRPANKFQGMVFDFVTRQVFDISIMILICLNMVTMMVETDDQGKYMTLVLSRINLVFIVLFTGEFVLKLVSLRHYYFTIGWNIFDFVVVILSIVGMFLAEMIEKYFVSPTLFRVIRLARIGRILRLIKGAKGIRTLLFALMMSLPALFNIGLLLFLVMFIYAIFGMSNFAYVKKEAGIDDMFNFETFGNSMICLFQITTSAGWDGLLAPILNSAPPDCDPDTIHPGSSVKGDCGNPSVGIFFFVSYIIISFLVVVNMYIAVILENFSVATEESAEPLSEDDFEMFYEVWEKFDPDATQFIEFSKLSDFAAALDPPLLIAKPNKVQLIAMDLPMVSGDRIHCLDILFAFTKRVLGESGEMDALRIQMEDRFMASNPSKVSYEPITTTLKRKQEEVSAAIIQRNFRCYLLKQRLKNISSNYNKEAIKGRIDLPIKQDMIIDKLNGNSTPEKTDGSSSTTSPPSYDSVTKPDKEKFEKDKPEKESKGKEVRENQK

SMILES | pIC50 (N-type calcium channels) | pIC50 (L-type calcium channels) | pIC50 (TTXs sodium channels) | pIC50 [1] | pIC50 [2] | inhibition at 100 µM (MAO-B) [%] | 50% Protection [3]
CNC(=O)CN(CCc1ccc(OCc2cccc(F)c2)c(OC)c1)CC1CC1 [Example 8, 2-[[2-[4-(3-Fluoro-benzyloxy)-3-methoxy-phenyl]-ethyl]-(cyclopropylmethyl)amino]-N-methyl-acetamide hydrochloride] | 5.68 | 5.42 | 5.46 | 5.28 | 5.01 |  | 
C[C@H](NCc1ccc(OCc2cccc(F)c2)cc1)C(N)=O [safinamide, (S)-(+)-2-[4-(3-fluoro-benzyloxy)-benzylamino]-propanamide, reference compound] |  |  |  |  |  | 100 | (4.0 mg/kg/iv)
